Experimental data taken from patent publication US12241097B2, “Compositions and methods for adoptive cell therapy for cancer” (MEMORIAL SLOAN KETTERING CANCER CENTER, priority 2017, dated 2025).
One block for each compound: values may come before it.

Assays:
[1] = system: PC9 cells; assay: PC9 viability, CellTitre-Glo, 48 hours; format: cell-based, human
Experimental: FIG. 14 provides exemplary data showing that Human T cells, but not cancer cells, are resistant to Erlotinib. (A) Human Jurkat T cells (red circle) and human non-small cell lung carcinoma cell lines PC9 (black square) and HCC827 (blue triangle) were treated with increasing concentrations of the receptor tyrosine kinase inhibitor Erlotinib. […] Cell viability was measured at 48 hours by CellTitre-Glo® luminescence.
FIG. 14 provides exemplary data showing that Human T cells, but not cancer cells, are resistant to Erlotinib. Human Jurkat T cells, primary T cells and human non-small cell lung carcinoma cell lines PC9 and HCC827 were treated with increasing concentrations of the receptor tyrosine kinase inhibitor Erlotinib. […] PC9 cells were incubated in the presence of Erlotinib, P-Erlotinib, or P-Erlotinib in the presence of purified CPG2. Cell viability was measured at 48 hours by CellTitre-Glo® luminescence.

[2] = system: Jurkat (T cell); assay: in vitro cytotoxicity, Jurkat; format: cell-based, human; details: T cell lines (Jurkat)
[3] = system: primary T-cells; assay: in vitro cytotoxicity, primary T cells; format: cell-based, human
[4] = system: HCC827; assay: HCC827 viability with Erlotinib; format: cell-based, human
[5] = system: Jurkat T cells; assay: Jurkat viability with P-AMS and purified recombinant CPG2; format: cell-based, human; details: Jurkat viability at 48 hours
Experimental: FIG. 4 provides exemplary data showing activation of P-AMS (see FIG. 2) by recombinant CPG2 expressed and purified from E. coli. (A) Human Jurkat T cells were incubated with or without P-AMS in the presence of increasing concentration of purified CPG2. Cell viability was measured at 48 hours by CellTitre-Glo luminescence. (B) Recombinant CPG2 was exposed to various concentrations of glutamated AMS prodrug. Following incubation at 37° C. (0.5, 1, 2, and 4 hr.), the reaction was combined with Amplex® Red (converts free glutamate to a fluorescent species) and fluorescent emission was analyzed using a fluorescence multiwell plate scanner.
The CPG2-pET151 vector was transformed into BL21 star E. coli cells and induced with IPTG. Bacteria were homogenized in a French Press and purified by affinity chromatography over Ni++ beads using standard protocols. Imidazole was exchanged via PBS dialysis and protein was purified via desalting spin columns. The expressed and purified CPG2 was assayed to confirm that the active enzyme was a potent converter of glutamated prodrugs. […] Pro-AMS was activated by recombinant CPG2 in vitro. Human Jurkat T cells were incubated with or without P-AMS in the presence of increasing concentration of purified CPG2. Cell viability of the Jurkat cells was measured at 48 hours by CellTitre-Glo® luminescence. […]

[6] = system: HEK293T cells expressing CPG2; assay: viability of HEK293T cells expressing CPG2 variants exposed to prodrug; format: cell-based, human
Experimental: (§1) The in vitro cytotoxicity of AMS (structure 1c) and its prodrug variant (structure 1a) was tested against a variety of cell lines using a CellTitre Glo® assay (Promega, Madison, WI). […] Moreover, co-treatment with the prodrug and supernatant from CPG2-transfected HEK293T cells (see Example 3) led to cytotoxicity approaching that of the free drug (50 nM), consistent with CPG2-mediated cleavage of the prodrug to release the active parent drug. […] In contrast, AMS prodrug 1a was not activated by HEK293T cells expressing CPG intracellularly, which likely attributed to poor cell-penetrance of the prodrug due to the free bis-anionic gluatamate moiety.
Expression of CPG2 without a signal peptide (CPG2nosigp) was employed as a control. HEK293t cells stably transfected with CPG2 variants were exposed to P-AMS ([…]) for 48 hours and analyzed by bright field microscopy (FIG. 9A). Cells were exposed to varying concentrations of P-AMS and cell viability was analyzed at 48 hr post treatment (FIG. 9B).
(§2) The HA epitope tag permitted staining of surface-level CPG2 in cells expressing either the secreted or transmembrane forms of the enzyme (FIG. 22D). […] Cell viability was measured at 48 hours by CellTitre-Glo® luminescence.

[7] = system: SET2 cells; assay: SET2 viability with prodrug and supernatant from CPG2-secreting HEK293t cells; format: cell-based; details: comparable to AMS at around 100 nM
Experimental: SET2 cells were exposed to increasing concentrations of AMS (square) or glut-AMS with media alone (− control, triangle) or supernatant from CPG2-secreting HEK293t cells (circle). Cell viability was measured by CellTitre-Glo® luminescence assay.
as §2

[8] = system: Jurkat T cells; assay: Jurkat viability with prodrug and supernatant from CPG2-secreting HEK293T cells; format: cell-based, human; details: for cell viability with CPG2 supernatant: 48 hours, control media did not
Experimental: as §1
Jurkat T cells were exposed to increasing concentrations of AMS (circle) or Pro-AMS with media alone (triangle) or supernatant from CPG2-secreting HEK293T cells (square). Cell viability was measured at 48 hours by CellTitre-Glo® luminescence assay.
Jurkat T cells were exposed to increasing concentrations of ZD2767P with media alone (triangle) or supernatant from CPG2-secreting HEK293T cells (square). Cell viability was measured at 48 hours by CellTitre-Glo® luminescence assay.

[9] = system: lung adenocarcinoma cells (HCC827); assay: coculture of 293t^CPGTM cells with HCC827 plus erlotinib prodrug; format: cell-based; details: 120 hr, flow cytometry
Experimental: FIG. 15 provides exemplary data showing the pro-drug activity of 293T cells expressing transmembrane CPG2. GFP+293t^CPGTM cells were co-cultured with lung adenocarcinoma cells (HCC827) at various ratios (293t^CPGTM:HCC827) and the erlotinib prodrug (p-erlotinib) was added. (A) Cells were analyzed at 120 hour by flow cytometry and % GFP was calculated. (B) Ratio of 293t^CPGTM cells to HCC827 cells was calculated for each cell ratio.
The retroviral constructs encoding the anti-CD19 CAR and transmembrane CPG2 enzyme described above were transduced into 293T cells to test the conversion activity of transmembrane CPG2 for an Erlotinib prodrug. GFP+293t^CPGTM cells were co-cultured with lung adenocarcinoma cells (HCC827) at various ratios (293t^CPGTM:HCC827) and the erlotinib prodrug (p-erlotinib) was added. Cells were analyzed at 120 hr. by flow cytometry (FIG. 15A) and the percentage of GFP cells and the ratio of 293t^CPGTM cells to HCC827 cells was calculated for each cell ratio (FIG. 15B).

[10] = system: Skov-3; assay: cell viability, Skov-3; format: cell-based, human
[11] = system: SET2 cells; assay: SET2 viability with ceph-AMS and Beta-lactamase supernatant; format: cell-based; details: comparable to AMS at around 100 nM
[12] = system: HEK293T; assay: in vitro cytotoxicity, HEK293T; format: cell-based, human; details: HEK293-t; unit inferred; read-out: IC50 (cell selectivity data), ceph-AMS
[13] = system: myeloid leukemia cell line SET2; assay: cytotoxicity, SET2 (CellTitre Glo); format: cell-based; details: unit inferred, read-out: IC50 (cell selectivity data), ceph-AMS

SMILES: C#Cc1cccc(Nc2ncnc3cc(OCCOC)c(OCCOC)cc23)c1 [Erlotinib, reference compound]
cell death with increasing concentrations ([1]; PC9): significant cell death
response to increasing concentrations [2]: resistance
response to increasing concentrations ([3]; primary T cells): resistance
cell death with increasing concentrations [4]: significant cell death

IC50 ([8]; Homo sapiens, with CPG2 supernatant, read-out: IC50, co-treatment with supernatant from CPG2-transfected HEK293T cells): 50 nM
SMILES: NS(=O)(=O)OC[C@H]1O[C@@H](n2cnc3c(NC(=O)N[C@@H](CCC(=O)O)C(=O)O)ncnc32)[C@H](O)[C@@H]1O [P-AMS, ((9-((2R,3R,4S,5R)-3,4-dihydroxy-5-((sulfamoyloxy)methyl)tetrahydrofuran-2-yl)-9H-purin-6-yl)carbamoyl)-L-glutamic Acid]
activation by recombinant CPG2 [5]: activated
cell death of HEK293T cells expressing CPG2 ([6]; cell-secreted and transmembrane CPG2, 48 hours, control construct did not): significant cell death
activation by HEK293T cells expressing CPG intracellularly ([6]; intracellular CPG): not activated
cell viability with CPG2 supernatant [7]: significant decrease in cell viability
cell viability with CPG2 supernatant [8]: significant decrease in cell viability

SMILES: C#Cc1cccc(N(Cc2ccc(NC(=O)N[C@@H](CCC(=O)O)C(=O)O)cc2)c2ncnc3cc(OCCOC)c(OCCOC)cc23)c1 [P-Erlotinib]
toxicity of prodrug alone ([1]; PC9, 1 μM, 48 hours): no toxicity
activity of prodrug cleaved by purified CPG2 ([1]; PC9, with purified CPG2): comparable activity to the active drug
killing after conversion by transmembrane CPG2 [9]: kills the target cancer cell

SMILES: O=C(O)CC[C@H](NC(=O)Oc1ccc(N(CCI)CCI)cc1)C(=O)O [ZD2767P, reference compound]
cell viability with CPG2 supernatant [8]: significant decrease in cell viability

SMILES: Nc1ncnc2c1ncn2[C@@H]1O[C@H](COS(=O)(=O)NCC2=C(C(=O)O)N3C(=O)[C@@H](NC(=O)Cc4cccs4)[C@H]3SC2)[C@@H](O)[C@H]1O [ceph-AMS]
Selective Index [10]: 3.6
IC50 ([10]; unit inferred, read-out: IC50 (cell selectivity data), ceph-AMS): > 1250 nM
IC50 ([3]; Human T cell, unit inferred, read-out: IC50 (cell selectivity data), ceph-AMS): > 1250 nM
cell viability with Beta-lactamase supernatant [11]: significant decrease in cell viability
IC50 [12]: 2000 nM
IC50 [13]: ~2200 nM
